Measured values: article PMC11403423 (iScience, 2024)
One block for each compound: values may come before it.

Columns and labels:
[1] = test system: #1-LTL+ and #2-LTL+ PToCs; experiment: Nephrotoxicity testing, LDH release; format: cell-based, human; settings: for Effect on cisplatin-induced LDH release: cimetidine 10 mM, cisplatin 100 μM
MRPs [2] = experiment: Fluorescein uptake and transport with MK571 in #1-LTL+ PToC; format: cell-based, human
MRPs [3] = experiment: Transcellular transport assay of OAT1/3 substrates with MK571 in #1-LTL+ PToC; settings: 10 μM MK571
OAT1 = target: T1, OAT1 (Homo sapiens, UniProt Q4U2R8); experiment: Transcellular transport assay of OAT1 substrates; settings: 10 μM substrate; #1-LTL+ PToC
T1 sequence (Q4U2R8 1-563): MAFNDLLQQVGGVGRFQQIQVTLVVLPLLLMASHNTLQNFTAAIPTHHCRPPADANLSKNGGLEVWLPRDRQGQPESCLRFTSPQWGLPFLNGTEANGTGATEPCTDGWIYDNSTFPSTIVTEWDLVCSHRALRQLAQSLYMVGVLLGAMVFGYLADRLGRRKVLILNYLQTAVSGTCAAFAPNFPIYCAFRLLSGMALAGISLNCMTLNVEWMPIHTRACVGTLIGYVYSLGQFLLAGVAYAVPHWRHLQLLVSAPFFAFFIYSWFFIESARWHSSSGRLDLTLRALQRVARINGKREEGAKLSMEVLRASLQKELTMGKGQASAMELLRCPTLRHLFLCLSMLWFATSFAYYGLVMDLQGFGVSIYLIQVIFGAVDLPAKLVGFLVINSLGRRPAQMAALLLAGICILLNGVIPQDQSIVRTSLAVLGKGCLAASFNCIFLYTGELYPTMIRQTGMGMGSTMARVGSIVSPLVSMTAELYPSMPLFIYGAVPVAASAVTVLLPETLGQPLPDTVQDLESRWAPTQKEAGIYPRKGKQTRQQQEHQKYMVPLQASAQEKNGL

#1-LTL+ PToC = experiment: LIVE/DEAD cell viability assay; format: cell-based, human; settings: cimetidine with cisplatin
OAT1/3 [4] = experiment: Fluorescein uptake assay; format: cell-based, human; settings: 2 μM fluorescein, 30 min
OAT1/3 [5] = experiment: Transported fluorescein amount; format: in vitro ADME, human; settings: plate reader; 30 min
OCT2 and MATE1 = experiment: Transcellular transport assay of metformin in PToC, LC/MS
OAT3 = target: T2, OAT3 (Homo sapiens, UniProt Q8TCC7); experiment: Transcellular transport assay of OAT3 substrate
T2 sequence (Q8TCC7 1-542): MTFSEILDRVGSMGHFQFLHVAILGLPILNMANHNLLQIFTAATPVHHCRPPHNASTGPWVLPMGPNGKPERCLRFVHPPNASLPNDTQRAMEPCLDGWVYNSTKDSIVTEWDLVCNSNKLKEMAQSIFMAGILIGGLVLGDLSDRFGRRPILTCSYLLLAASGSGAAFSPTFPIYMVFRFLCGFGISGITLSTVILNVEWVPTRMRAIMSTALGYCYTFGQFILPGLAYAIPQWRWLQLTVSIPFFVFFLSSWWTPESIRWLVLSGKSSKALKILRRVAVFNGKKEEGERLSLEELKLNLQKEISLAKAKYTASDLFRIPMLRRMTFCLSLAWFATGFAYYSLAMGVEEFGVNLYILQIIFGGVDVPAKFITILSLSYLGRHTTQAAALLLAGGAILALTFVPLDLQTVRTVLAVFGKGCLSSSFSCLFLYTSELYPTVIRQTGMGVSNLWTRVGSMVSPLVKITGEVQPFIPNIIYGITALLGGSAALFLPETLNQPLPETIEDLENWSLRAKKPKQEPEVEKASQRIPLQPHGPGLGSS

P-gp = P-gp (Homo sapiens, UniProt P08183); settings: #2-LTL+ PToC
Chain of P-gp (P08183 whole entry): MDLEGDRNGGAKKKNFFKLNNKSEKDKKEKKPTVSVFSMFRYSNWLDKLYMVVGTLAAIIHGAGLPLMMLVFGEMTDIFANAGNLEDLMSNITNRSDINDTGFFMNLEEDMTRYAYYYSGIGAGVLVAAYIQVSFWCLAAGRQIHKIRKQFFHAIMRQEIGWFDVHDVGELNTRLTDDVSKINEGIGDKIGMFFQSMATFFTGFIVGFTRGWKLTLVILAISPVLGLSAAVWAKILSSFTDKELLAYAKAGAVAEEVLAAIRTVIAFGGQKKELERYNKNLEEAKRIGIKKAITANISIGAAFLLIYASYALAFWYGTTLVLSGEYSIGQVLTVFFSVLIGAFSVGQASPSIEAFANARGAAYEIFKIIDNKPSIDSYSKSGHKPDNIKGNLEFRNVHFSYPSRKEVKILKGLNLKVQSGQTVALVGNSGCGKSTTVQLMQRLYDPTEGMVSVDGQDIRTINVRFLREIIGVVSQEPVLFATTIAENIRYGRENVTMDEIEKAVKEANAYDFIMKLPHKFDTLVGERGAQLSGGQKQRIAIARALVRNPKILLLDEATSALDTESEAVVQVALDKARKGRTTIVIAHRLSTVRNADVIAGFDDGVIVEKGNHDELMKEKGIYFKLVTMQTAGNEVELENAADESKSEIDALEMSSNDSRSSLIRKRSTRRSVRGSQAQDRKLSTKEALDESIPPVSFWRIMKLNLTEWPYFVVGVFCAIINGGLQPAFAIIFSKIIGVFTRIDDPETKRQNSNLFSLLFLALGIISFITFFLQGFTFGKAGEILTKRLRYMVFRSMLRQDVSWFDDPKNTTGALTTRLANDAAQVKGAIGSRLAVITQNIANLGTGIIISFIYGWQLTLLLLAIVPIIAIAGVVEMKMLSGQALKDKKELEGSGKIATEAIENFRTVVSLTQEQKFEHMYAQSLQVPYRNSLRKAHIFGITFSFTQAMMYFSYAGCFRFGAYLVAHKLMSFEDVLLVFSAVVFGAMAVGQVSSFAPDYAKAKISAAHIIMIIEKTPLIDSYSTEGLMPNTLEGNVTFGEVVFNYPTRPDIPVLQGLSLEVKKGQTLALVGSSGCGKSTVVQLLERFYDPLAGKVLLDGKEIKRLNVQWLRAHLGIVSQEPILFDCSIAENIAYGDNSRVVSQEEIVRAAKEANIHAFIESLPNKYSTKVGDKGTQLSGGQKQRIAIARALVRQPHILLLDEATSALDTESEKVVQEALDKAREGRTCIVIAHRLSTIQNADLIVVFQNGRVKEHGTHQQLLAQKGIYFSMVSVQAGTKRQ

Compound: COc1cccc2c1cc([N+](=O)[O-])c1c(C(=O)O)cc3c(c12)OCO3 [AA, Aristolochic acid I]
Normalized LDH release in #1-LTL+ compared to #2-LTL+ ([1]; 50 μM, 24 h): markedly higher | Normalized LDH release compared to control group without aristolochic acid ([1]; 50 μM, basal, 24 h, #1-LTL+ and #2-LTL+ PToCs): significantly higher

Compound: CN(C)C(=O)CCSC(SCCC(=O)O)c1cccc(/C=C/c2ccc3ccc(Cl)cc3n2)c1 (stereo not drawn) [MK571]
Fluorescein transcellular transport (MRPs [2]): reduction | Intracellular fluorescein accumulation (fluorescence intensity) (MRPs [2]): notable increase | Effect on OAT1 excretion of PAH (MRPs [3]): significant impairment | Effect on OAT1 excretion of adefovir (MRPs [3]): significant impairment | Effect on OAT3 transport of rosuvastatin (MRPs [3]): no substantial effect

Compound: CN/C(=N/CCSCc1nc[nH]c1C)NC#N [cimetidine]
Effect on cisplatin-induced LDH release ([1]; 24 h, #1-LTL+): significant reduction | Effect on cisplatin-induced LDH release ([1]; 24 h, #2-LTL+): less pronounced | Effect on cisplatin-induced LDH release ([1]; 48 h, #1-LTL+ PToC): no difference among all conditions | Effect on cisplatin-induced LDH release ([1]; 48 h, #2-LTL+ PToC): notable reduction | Effect on cisplatin-induced cell death (LIVE/DEAD) (#1-LTL+ PToC): reduction in cell death

Compound: C=C[C@H]1C[N@@]2CC[C@H]1C[C@@H]2[C@@H](O)c1ccnc2ccc(OC)cc12 [quinidine]
Basal to apical (b → a) transport rate compared with RPTEC (P-gp): less basal to apical (b → a) transport rate

More lines, now with the values ahead:

Basal to apical (b → a) transport (Papp) in #1-LTL+ versus other PToC models (OAT1): notably higher
Compound: Nc1ncnc2c1ncn2CCOCP(=O)(O)O [adefovir]

Fluorescein uptake of #2-LTL+ PToC relative to #1-LTL+ PToC (OAT1/3 [4]): approximately 60% | Fluorescein uptake compared to RPTEC (OAT1/3 [4]; #1-LTL+ and #2-LTL+ PToC, absence of probenecid): significantly higher fluorescein uptake | Transcellular transport of fluorescein in #2-LTL+ PToC relative to #1-LTL+ PToC (OAT1/3 [5]): 10%
Compound: O=C1OC2(c3ccc(O)cc3Oc3cc(O)ccc32)c2ccccc21 [fluorescein]

Difference in ER between #1-LTL+ and #2-LTL+ PToCs (OCT2 and MATE1): no significant differences | Transcellular basal to apical (b → a) transport rate, comparison of PToCs (OCT2 and MATE1; #1-LTL+ PToC versus #2-LTL+ and RPTEC): highest transport rates
Compound: CN(C)C(=N)N=C(N)N [metformin]

Impact on rosuvastatin transport (OAT3; probenecid 100 μM, #1-LTL+ and #2-LTL+): minimal impact
Compound: CCCN(CCC)S(=O)(=O)c1ccc(C(=O)O)cc1 [probenecid]

Basal to apical (b → a) transport (Papp) in #1-LTL+ versus other PToC models (OAT3; 10 μM substrate, #1-LTL+ PToC): notably higher
Compound: CC(C)c1nc(N(C)S(C)(=O)=O)nc(-c2ccc(F)cc2)c1/C=C/[C@@H](O)C[C@@H](O)CC(=O)O [rosuvastatin]
